Reference: patent publication US5219884A, “Immunosuppressant” (Taito Co., Ltd., priority 1990, dated 1993)
≈ marks a conversion by molar mass, not a printed value. Where two headings read alike, the source gives them in different places.

Key:
[1] = system: human allogenic MLR (peripheral blood lymphocytes); assay: human allogenic MLR-suppressive activity; type: cell-based
Protocol: The human allogenic MLR-suppressive activity was assayed as follows:
Human peripheral blood lymphocytes obtained by Ficoll-Paque density gradient centrifugation of normal human peripheral blood were suspended in the RPMI1640 medium supplemented with 10% FCS, placed in plastic dishes, and incubated at 37° C. in an atmosphere of 5% carbon dioxide for 2 hours. After termination of incubation, the supernatant after gentle pipetting was harvested and centrifuged (1000 rpm, for 5 minutes) to obtain plastic-nonadherent cells. The plastic-nonadherent cells were allowed to pass through a nylon-wool column to give nylon-nonadherent cells, and the concentration of the cell suspension was adjusted to 4×10^6 cells/ml by using the RPMI1640 culture medium supplemented with 10% FCS, and used as the responder cell suspension.
The plastic-adherent cells were removed from the plastic dish by vigorous pipetting after addition of phosphate buffered saline supplemented with 5% FCS and 0.02% disodium ethylenediamine-tetraacetic acid (EDTA). The plastic-adherent cells were treated with 40 μg/ml of mitomycin C at 37° C. for 60 minutes, washed three times, and suspended to the concentration of 4×10^6 cells/ml in the RPMI1640 culture medium supplemented with 10% FCS. The resultant suspension was used as the stimulator cell suspension. Fifty μl of the responder cell suspension from the donor A or C was mixed with 50 μl of the stimulator cell suspension from the donor B or D, to which 100 μl of the test substance was added, and cultured at 37° C. in the an atmosphere 5% carbon dioxide for 5 days.
After termination of the culture, 1.0 μCi/well of ^3 H-thymidine was added, and after 18 hours of culture, the cells were harvested by a cell-harvester. The radioactivity incorporated into the cells was measured by a liquid scintillation counter as the index of blastogenic response of lymphocytes in human allogenic MLR. The suppression of human allogenic MLR was evaluated by calculating the percent suppression by the following formula. [formula]

[2] = system: IL2-dependent mouse cell line CTLL-2; assay: suppression of IL-2 induced 3H-thymidine incorporation of CTLL-2; type: cell-based; settings: for inhibition at 0.1 µg/mL / inhibition at 10 µg/mL / inhibition at 0.01 µg/mL / inhibition at 1 µg/mL: Mus musculus; for inhibition at 0.1 µg/mL / inhibition at 10 µg/mL / inhibition at 0.01 µg/mL: read-out: Suppression
Protocol: IL2-dependent mouse cell line CTLL-2 cells were suspended in the RPMI1640 culture medium supplemented with 30% FCS to a concentration of 2×10^5 cells/ml. The suspension (50 μl) and 50 μl of concanavalin A-stimulated rat spleen cell culture supernatants containing IL2 were added to each well of 96-well microculture plates in which 100 μl of the test substance had been placed. After culturing at 37° C. in an atmosphere of 5% carbon dioxide for 20, 44, or 68 hours, 0.5 μCi/well of ^3 H-thymidine was added, and cultured for 4 hours under the same conditions. After termination of the culture, the cells were harvested by a cell harvester, and the radioactivity incorporated into the cells was measured by a liquid scintillation counter.

[3] = system: anti-sheep red blood cell antibody production in BALB/c mice; assay: suppression of mouse anti-sheep red blood cell antibody production (PFC); type: in vivo; settings: Experiment 1, 4 days
Protocol: (§1) Males 5- to 7-week-old BALB/c mice were immunized with sheep red blood cells (SRBC), and the spleen was resected three or four days later. By counting the plaque forming cells (PFC), suppressive effect on the production of the anti-sheep red blood cell antibody was examined as follows.
(§2) BALB/c mice were immunized with SRBC (1×10^7 cells/mouse, intravenous administration), and ISP-I in the Example 1 was administered intraperitoneally for 4 consecutive days from the day of immunization. Four days after immunization (the next day of the final administration), the spleen was resected and the anti-sheep red blood cell antibody-producing cells were determined by the direct plaque method. At the same time the body weight of the mouse, wet weight of the thymus and the spleen, and numbers of spleen cells were also determined.
as §2, with “(5×10^7” for “(1×10^7”, “the compound” for “ISP-I”, “5” for “1”, “resected,” for “resected”, “time,” for “time”

KATOIII = assay: in vitro; type: cell-based, human
[4] = body weight, wet weight of thymus and spleen, number of spleen cells in SRBC-immunized mice; type: in vivo, mouse; settings: for Number of spleen cells: Experiment 1; for Body weight / Wet weight spleen / Wet weight thymus: mouse, in vivo
Protocol: as §1, §2
as §2, with “(5×10^7” for “(1×10^7”, “the compound” for “ISP-I”, “5” for “1”, “resected,” for “resected”, “time,” for “time”

CCCCCCC(=O)CCCCCC/C=C/CC(O)C(O)C(N)(CO)C(=O)O (centres unmarked) [Example 1]
inhibition at 0.0001 µg/mL ([1]; Homo sapiens, Lymphocyte, donor A/donor B, 0.0001 μg/ml, read-out: Suppression): 51.8% | inhibition at 0.001 µg/mL ([1]; Homo sapiens, Lymphocyte, donor A/donor B, 0.001 μg/ml, read-out: Suppression): 77.7% | inhibition at 0.01 µg/mL ([1]; Homo sapiens, Lymphocyte, donor A/donor B, 0.01 μg/ml, read-out: Suppression): 73.3% | inhibition at 0.1 µg/mL ([1]; Homo sapiens, Lymphocyte, donor A/donor B, 0.1 μg/ml, read-out: Suppression): 79% | inhibition at 1 µg/mL ([1]; Homo sapiens, Lymphocyte, donor A/donor B, 1 μg/ml, read-out: Suppression): 80.1% | inhibition at 10 pg/mL ([1]; Homo sapiens, Lymphocyte, donor C/donor D, 0.00001 μg/ml, read-out: Suppression): 37.7% | inhibition at 0.0001 µg/mL ([1]; Homo sapiens, Lymphocyte, donor C/donor D, 0.0001 μg/ml, read-out: Suppression): 44% | inhibition at 0.001 µg/mL ([1]; Homo sapiens, Lymphocyte, donor C/donor D, 0.001 μg/ml, read-out: Suppression): 67.9% | inhibition at 0.01 µg/mL ([1]; Homo sapiens, Lymphocyte, donor C/donor D, 0.01 μg/ml, read-out: Suppression): 74.8% | inhibition at 0.1 µg/mL ([1]; Homo sapiens, Lymphocyte, donor C/donor D, 0.1 μg/ml, read-out: Suppression): 79.2% | inhibition at 1 µg/mL ([1]; Homo sapiens, Lymphocyte, donor C/donor D, 1 μg/ml, read-out: Suppression): 76.5% | inhibition at 10 µg/mL ([1]; Homo sapiens, Lymphocyte, donor C/donor D, 10 μg/ml, read-out: Suppression): 88.8% | IC50 ([1]; Homo sapiens, Lymphocyte, read-out: 50%-inhibition concentration (IC50)): 0.1 ng/mL (≈ 0.249 nM) | inhibition at 10 µg/mL ([1]; Homo sapiens, Lymphocyte, read-out: Suppression): 100% | 3H-thymidine uptake ([1]; donor A/donor B, 0.0001 μg/ml): 12769 cpm | 3H-thymidine uptake ([1]; donor A/donor B, 0.001 μg/ml): 7190 cpm | 3H-thymidine uptake ([1]; donor A/donor B, 0.01 μg/ml): 8138 cpm | 3H-thymidine uptake ([1]; donor A/donor B, 0.1 μg/ml): 6922 cpm | 3H-thymidine uptake ([1]; donor A/donor B, 1 μg/ml): 6690 cpm | 3H-thymidine uptake ([1]; donor A/donor B, 10 μg/ml): 1082 cpm | 3H-thymidine uptake ([1]; donor C/donor D, 0.00001 μg/ml): 10896 cpm | 3H-thymidine uptake ([1]; donor C/donor D, 0.0001 μg/ml): 9806 cpm | 3H-thymidine uptake ([1]; donor C/donor D, 0.001 μg/ml): 5646 cpm | 3H-thymidine uptake ([1]; donor C/donor D, 0.01 μg/ml): 4460 cpm | 3H-thymidine uptake ([1]; donor C/donor D, 0.1 μg/ml): 3613 cpm | 3H-thymidine uptake ([1]; donor C/donor D, 1 μg/ml): 4167 cpm | 3H-thymidine uptake ([1]; donor C/donor D, 10 μg/ml): 2018 cpm | 3H-thymidine uptake ([2]; 24 hrs, 0.01 μg/ml): 6003 cpm | 3H-thymidine uptake ([2]; 24 hrs, 0.1 μg/ml): 3722 cpm | 3H-thymidine uptake ([2]; 24 hrs, 1 μg/ml): 3977 cpm | 3H-thymidine uptake ([2]; 24 hrs, 10 μg/ml): 1968 cpm | 3H-thymidine uptake ([2]; 48 hrs, 0.01 μg/ml): 19592 cpm | 3H-thymidine uptake ([2]; 48 hrs, 0.1 μg/ml): 7324 cpm | 3H-thymidine uptake ([2]; 48 hrs, 1 μg/ml): 4794 cpm | 3H-thymidine uptake ([2]; 48 hrs, 10 μg/ml): 1649 cpm | 3H-thymidine uptake ([2]; 72 hrs, 0.01 μg/ml, control 78515 cpm): 56688 cpm | 3H-thymidine uptake ([2]; 72 hrs, 0.1 μg/ml, control 78515 cpm): 2436 cpm | 3H-thymidine uptake ([2]; 72 hrs, 1 μg/ml, control 78515 cpm): 846 cpm | 3H-thymidine uptake ([2]; 72 hrs, 10 μg/ml, control 78515 cpm): 478 cpm | inhibition at 0.1 µg/mL ([2]; CTLL-2, 24 h): 45.5% | inhibition at 10 µg/mL ([2]; CTLL-2, 72 h): 100% | inhibition at 0.01 µg/mL ([2]; CTLL-2, 24 hrs, 0.01 μg/ml): 10.3% | inhibition at 1 µg/mL ([2]; CTLL-2, 24 hrs, 1 μg/ml): 41.5% | inhibition at 10 µg/mL ([2]; CTLL-2, 24 hrs, 10 μg/ml): 72.5% | inhibition at 0.01 µg/mL ([2]; CTLL-2, 48 hrs, 0.01 μg/ml): 22.7% | inhibition at 0.1 µg/mL ([2]; CTLL-2, 48 hrs, 0.1 μg/ml): 72.2% | inhibition at 1 µg/mL ([2]; CTLL-2, 48 hrs, 1 μg/ml): 82.4% | inhibition at 10 µg/mL ([2]; CTLL-2, 48 hrs, 10 μg/ml): 95.1% | inhibition at 0.01 µg/mL ([2]; CTLL-2, 72 hrs, 0.01 μg/ml, control 78515 cpm): 28% | inhibition at 0.1 µg/mL ([2]; CTLL-2, 72 hrs, 0.1 μg/ml, control 78515 cpm): 97.7% | inhibition at 1 µg/mL ([2]; CTLL-2, 72 hrs, 1 μg/ml, control 78515 cpm): 99.8% | Number of PFC per 1 × 10^7 cell ([3]; 0.3 mg/kg/day i.p.): 1.4 ± 0.4 × 10^3 /1 × 10^7 cell | Number of PFC per spleen ([3]; 0.3 mg/kg/day i.p.): 0.9 ± 0.3 × 10^4 /spleen | Number of PFC per 1 × 10^7 cell ([3]; 1 mg/kg/day i.p.): 0.5 ± 0.2 × 10^3 /1 × 10^7 cell | Number of PFC per spleen ([3]; 1 mg/kg/day i.p.): 0.3 ± 0.1 × 10^4 /spleen | Number of PFC per 1 × 10^7 cell ([3]; 3 mg/kg/day i.p.): 0.2 ± 0.1 × 10^3 /1 × 10^7 cell | Number of PFC per spleen ([3]; 3 mg/kg/day i.p.): 0.1 ± 0.0 × 10^4 /spleen | Absorbancy (KATOIII; 0.01 μg/ml): 0.990 | Absorbancy (KATOIII; 0.1 μg/ml): 0.972 | Absorbancy (KATOIII; 1.0 μg/ml): 0.961 | Absorbancy (KATOIII; 10.0 μg/ml): 0.869 | Absorbancy (KATOIII; 100.0 μg/ml): 0.041 | Number of spleen cells ([4]; 0.3 mg/kg/day): 1.4 ± 0.3 × 10^8 cell | Number of spleen cells ([4]; 1 mg/kg/day): 1.3 ± 0.4 × 10^8 cell | Number of spleen cells ([4]; 3 mg/kg/day): 1.3 ± 0.2 × 10^8 cell | Body weight ([4]; 0.3 mg/kg/day): 23 ± 2 g | Wet weight spleen ([4]; 0.3 mg/kg/day): 202 ± 4 mg | Wet weight thymus ([4]; 0.3 mg/kg/day): 48 ± 5 mg | Body weight ([4]; 1 mg/kg/day): 23 ± 1 g | Wet weight spleen ([4]; 1 mg/kg/day): 206 ± 32 mg | Wet weight thymus ([4]; 1 mg/kg/day): 50 ± 1 mg | Body weight ([4]; 3 mg/kg/day): 19 ± 1 g | Wet weight spleen ([4]; 3 mg/kg/day): 137 ± 17 mg | Wet weight thymus ([4]; 3 mg/kg/day): 25 ± 14 mg
